Assay results as given in patent US10357576B2, “18F-labelled folate/antifolate analogues” (MERCK & CIE, priority 2012, dated 2019).

Target: T1, Folate receptor (Homo sapiens, UniProt P15328)
T1 construct: host or cells: KB cells (human cervical carcinoma cell line, HeLa subclone)
Assay: Folate receptor binding affinity (displacement of ^3H-folic acid on KB tumor cells)
Conditions: ^3H-folic acid 0.84 nM, 4° C., 30 min, read-out: FR-binding affinity IC50
Procedure: Cell Culture: KB cells (human cervical carcinoma cell line, HeLa subclone; ACC-136) were purchased from the German Collection of Microorganisms and Cell Cultures (DSMZ, Braunschweig, Germany). The cells were cultured as monolayers at 37° C. in a humidified atmosphere containing 5% CO2. […] FFRPMI medium was supplemented with 10% heat-inactivated fetal calf serum (FCS, as the only source of folate), L-glutamine and antibiotics (penicillin/streptomycin/fungizone). Routine culture treatment was performed twice a week with EDTA (2.5 mmol/l) in PBS.
After incubation, Eppendorf tubes containing the cell suspensions were centrifuged at 4° C. for 5 min and the supernatant was removed. By addition of 0.5 ml of NaOH 1 M the cell pellets were lysed and transferred into scintillation tubes containing 5 ml of scintillation cocktail (Ultima Gold; Perkin Elmer). Radioactivity was measured using a liquid scintillation analyzer (Tri-Carb 1900 TR, Packard) and an inhibitory concentration of 50% was determined from displacement curves using GraphPad Prism (version 5.01) software.

T1 sequence (P15328 25-234): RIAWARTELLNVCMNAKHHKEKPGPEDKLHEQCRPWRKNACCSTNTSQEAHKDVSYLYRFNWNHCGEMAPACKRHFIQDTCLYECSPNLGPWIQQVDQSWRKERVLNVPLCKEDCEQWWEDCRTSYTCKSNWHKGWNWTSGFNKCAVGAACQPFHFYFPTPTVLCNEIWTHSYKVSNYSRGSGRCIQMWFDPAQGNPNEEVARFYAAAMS

Nc1nc2ncc(CNc3ccc(C(=O)N[C@@H](CCC(=O)O)C(=O)O)c(F)n3)nc2c(=O)[nH]1 [3′-aza-2′-fluorofolic acid]
IC50: 0.81 ± 0.18 nM
